In ChEMBL document CHEMBL6153147 (J Med Chem, 2025):

Legend:
[1] = biological target: Serine/threonine-protein kinase PLK1 (Homo sapiens, UniProt P53350); experiment: Inhibition of human PLK1 using ATF2 as substrate incubated for 40 mins in presence of [gamma-33P]ATP/Mg acetate by scintillation counting analysis
[2] = Selectivity ratio of IC50 for inhibition of human PLK2 using ATF2 as substrate to IC50 for inhibition of human PLK1 using ATF2 as substrate
[3] = biological target: Serine/threonine-protein kinase PLK3 (Homo sapiens, UniProt Q9H4B4); experiment: Inhibition of human PLK3 using ATF2 as substrate incubated for 40 mins in presence of [gamma-33P]ATP/Mg acetate by scintillation counting analysis
Serine/threonine-protein kinase PLK3, sequence (Q9H4B4 whole entry): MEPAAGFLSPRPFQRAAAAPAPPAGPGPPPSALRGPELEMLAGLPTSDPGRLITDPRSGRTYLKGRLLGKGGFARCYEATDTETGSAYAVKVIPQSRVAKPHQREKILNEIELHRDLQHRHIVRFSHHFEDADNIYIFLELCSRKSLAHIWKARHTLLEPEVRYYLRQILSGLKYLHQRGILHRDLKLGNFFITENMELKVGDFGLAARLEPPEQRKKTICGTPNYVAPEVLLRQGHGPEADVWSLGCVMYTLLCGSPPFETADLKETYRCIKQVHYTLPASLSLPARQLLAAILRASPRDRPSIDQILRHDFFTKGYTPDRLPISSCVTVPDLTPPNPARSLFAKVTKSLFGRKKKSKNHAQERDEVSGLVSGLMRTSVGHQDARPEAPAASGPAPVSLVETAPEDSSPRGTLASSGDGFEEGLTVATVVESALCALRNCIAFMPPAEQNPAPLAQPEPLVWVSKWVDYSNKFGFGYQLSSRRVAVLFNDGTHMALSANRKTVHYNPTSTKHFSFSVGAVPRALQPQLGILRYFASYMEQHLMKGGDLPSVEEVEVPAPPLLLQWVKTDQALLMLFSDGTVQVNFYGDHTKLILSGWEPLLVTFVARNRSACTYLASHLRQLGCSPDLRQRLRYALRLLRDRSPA

[4] = Selectivity ratio of IC50 for inhibition of human PLK3 using ATF2 as substrate to IC50 for inhibition of human PLK1 using ATF2 as substrate
[5] = biological target: Serine/threonine-protein kinase PLK2 (Homo sapiens, UniProt Q9NYY3); experiment: Inhibition of human PLK2 using ATF2 as substrate incubated for 40 mins in presence of [gamma-33P]ATP/Mg acetate by scintillation counting analysis
Serine/threonine-protein kinase PLK2, sequence (Q9NYY3 whole entry): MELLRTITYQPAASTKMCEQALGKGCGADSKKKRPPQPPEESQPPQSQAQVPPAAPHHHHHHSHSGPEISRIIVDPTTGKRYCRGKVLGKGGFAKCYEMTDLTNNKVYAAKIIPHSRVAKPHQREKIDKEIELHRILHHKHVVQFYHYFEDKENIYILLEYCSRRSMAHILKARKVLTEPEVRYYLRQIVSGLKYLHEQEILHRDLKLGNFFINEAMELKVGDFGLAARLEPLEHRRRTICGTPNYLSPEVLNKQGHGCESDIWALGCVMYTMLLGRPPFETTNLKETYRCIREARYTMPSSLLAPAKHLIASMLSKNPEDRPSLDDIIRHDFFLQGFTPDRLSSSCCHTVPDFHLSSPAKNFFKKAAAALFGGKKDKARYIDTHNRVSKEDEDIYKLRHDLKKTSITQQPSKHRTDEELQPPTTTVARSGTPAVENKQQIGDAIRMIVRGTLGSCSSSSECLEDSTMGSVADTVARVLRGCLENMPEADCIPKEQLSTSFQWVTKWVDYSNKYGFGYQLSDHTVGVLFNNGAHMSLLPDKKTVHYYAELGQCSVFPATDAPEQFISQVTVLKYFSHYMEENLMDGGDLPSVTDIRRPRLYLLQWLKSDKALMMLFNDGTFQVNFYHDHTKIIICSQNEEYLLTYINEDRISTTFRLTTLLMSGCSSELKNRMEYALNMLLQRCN

CCRF-CEM = experiment: cells; conditions: Homo sapiens
HL-60 = experiment: cells; conditions: Homo sapiens
NCI-H460 = experiment: cells; conditions: Homo sapiens
SW-620 = experiment: cells; conditions: Homo sapiens
PC-9 = experiment: cells; conditions: Homo sapiens
A549 = experiment: cells; conditions: Homo sapiens
KG-1 = experiment: cells; conditions: Homo sapiens
K562 = experiment: cells; conditions: Homo sapiens

Serine/threonine-protein kinase PLK1, sequence (P53350 whole entry): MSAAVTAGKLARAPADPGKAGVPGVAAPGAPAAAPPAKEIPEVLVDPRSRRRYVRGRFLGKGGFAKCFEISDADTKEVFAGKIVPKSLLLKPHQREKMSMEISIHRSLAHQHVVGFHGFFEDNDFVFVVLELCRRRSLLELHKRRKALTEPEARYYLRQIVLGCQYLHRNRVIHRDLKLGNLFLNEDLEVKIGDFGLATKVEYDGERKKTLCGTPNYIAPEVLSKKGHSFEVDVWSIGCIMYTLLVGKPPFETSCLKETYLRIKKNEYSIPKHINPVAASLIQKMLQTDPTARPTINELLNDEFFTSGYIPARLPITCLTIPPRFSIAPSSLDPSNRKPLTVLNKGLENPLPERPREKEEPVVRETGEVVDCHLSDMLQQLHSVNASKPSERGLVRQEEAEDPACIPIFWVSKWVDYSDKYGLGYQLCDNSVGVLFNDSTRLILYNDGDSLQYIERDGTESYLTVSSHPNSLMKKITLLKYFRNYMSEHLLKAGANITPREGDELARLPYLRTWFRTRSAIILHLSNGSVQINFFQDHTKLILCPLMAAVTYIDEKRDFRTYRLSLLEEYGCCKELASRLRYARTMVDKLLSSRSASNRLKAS

| Compound | IC50 [1] [µM] | IC50 [3] [µM] | IC50 [5] [µM] | IC50 (CCRF-CEM) [µM] | IC50 (HL-60) [µM] | IC50 (NCI-H460) [µM] | IC50 (SW-620) [µM] | IC50 (PC-9) [µM] | IC50 (A549) [µM] | IC50 (KG-1) [µM] | IC50 (K562) [µM] | ratio [2] | ratio [4] |
| --- | --- | --- | --- | --- | --- | --- | --- | --- | --- | --- | --- | --- | --- |
| CC[C@@H]1C(=O)N(C)c2cnc(Nc3cc(N4CCN(CC)CC4)ccc3OCCCO)nc2N1C1CCCC1 | 0.026 | 4.91 | > 10 | – | – | – | – | – | – | – | – | > 357 | 175 |
| CC[C@@H]1C(=O)N(C)c2cnc(Nc3cc(N4CCC(NC(=O)OC(C)(C)C)CC4)ccc3OC)nc2N1C1CCCC1 | 0.152 | 6.45 | 3.37 | – | – | – | – | – | – | – | – | 22 | 43 |
| CC[C@@H]1C(=O)N(C)c2cnc(Nc3cc(N4CCN(C)CC4)cc(F)c3OC[C@H](C)O)nc2N1C(C)C | 0.141 | > 10 | > 10 | – | – | – | – | – | – | – | – | > 71 | > 71 |
| CC[C@@H]1C(=O)N(C)c2cnc(Nc3cc(N4CCN(C(=O)OC(C)(C)C)CC4)ccc3OCCO)nc2N1C1CCCC1 | 0.138 | > 10 | > 10 | – | – | – | – | – | – | – | – | > 73 | > 73 |
| CC[C@@H]1C(=O)N(C)c2cnc(Nc3cc(N4CCN(C)CC4)ccc3OC)nc2N1C1CCCC1 | 0.021 | 0.635 | 0.255 | – | – | – | – | – | – | – | – | 12 | 30 |
| CC[C@@H]1C(=O)N(C)c2cnc(Nc3cc(N4CCNCC4)ccc3OCCO)nc2N1C1CCCC1 | 0.039 | 5.83 | > 10.1 | – | – | – | – | – | – | – | – | > 256 | 150 |
| CC[C@@H]1C(=O)N(C)c2cnc(Nc3cc(N4CCN(C)CC4)cc(F)c3OC)nc2N1C1CCCC1 | 0.011 | 1.18 | 0.459 | – | – | – | – | – | – | – | – | 42 | 108 |
| CC[C@@H]1C(=O)N(C)c2cnc(Nc3cc(N4CCN(C)CC4)ccc3OCCCO)nc2N1C(C)C | 0.022 | > 10 | > 10 | – | – | – | – | – | – | – | – | > 300 | > 300 |
| CC[C@@H]1C(=O)N(C)c2cnc(Nc3cc(N4CCN(C)CC4)cc(F)c3OC)nc2N1C(C)C | 0.016 | 5.16 | 6.6 | – | – | – | – | – | – | – | – | 412 | 322 |
| CC[C@@H]1C(=O)N(C)c2cnc(Nc3cc(N4CCN(C)CC4)cc(F)c3OCCCO)nc2N1C(C)C | 0.016 | 9.37 | > 10 | 0.112 | 0.077 | 0.095 | 0.083 | 0.25 | 0.492 | 0.342 | 0.0077 | > 625 | 586 |
| CC[C@@H]1C(=O)N(C)c2cnc(Nc3cc(N4CCN(CC)CC4)ccc3OCCO)nc2N1C1CCCC1 | 0.027 | 6.98 | > 10 | – | – | – | – | – | – | – | – | > 370 | 258 |
| CC[C@@H]1C(=O)N(C)c2cnc(Nc3cc(N4CCC(N)CC4)ccc3OC)nc2N1C1CCCC1 | 0.029 | 0.926 | 0.505 | – | – | – | – | – | – | – | – | 17 | 32 |
| CC[C@@H]1C(=O)N(C)c2cnc(Nc3cc(N4CCN(C)CC4)ccc3OCCO)nc2N1C(C)C | 0.033 | > 10 | > 10 | – | – | – | – | – | – | – | – | > 303 | > 303 |
| CC[C@@H]1C(=O)N(C)c2cnc(Nc3cc(N4CCC(NC(=O)OC(C)(C)C)CC4)ccc3OCCO)nc2N1C1CCCC1 | 0.149 | > 10 | > 10 | – | – | – | – | – | – | – | – | > 67.1 | > 67.1 |
| CC[C@@H]1C(=O)N(C)c2cnc(Nc3cc(N4CCN(C)CC4)cc(Cl)c3OC)nc2N1C1CCCC1 | 0.012 | 0.778 | 0.325 | – | – | – | – | – | – | – | – | 27 | 64 |
| CC[C@@H]1C(=O)N(C)c2cnc(Nc3cc(N4CCN(C)CC4)ccc3OCCO)nc2N1C1CCCC1 | 0.027 | 5.67 | > 10.1 | – | – | – | – | – | – | – | – | > 450 | 245 |
| CC[C@@H]1C(=O)N(C)c2cnc(Nc3cc(N4CCNCC4)ccc3OCCCO)nc2N1C(C)C | 0.04 | > 10 | > 10 | – | – | – | – | – | – | – | – | > 250 | > 250 |
| CC[C@@H]1C(=O)N(C)c2cnc(Nc3cc(N4CCN(CC)CC4)ccc3OCCO)nc2N1C(C)C | 0.074 | > 10 | > 10 | – | – | – | – | – | – | – | – | > 135 | > 135 |
| CC[C@@H]1C(=O)N(C)c2cnc(Nc3cc(N4CCNCC4)ccc3OCCO)nc2N1C(C)C | 0.101 | > 10 | > 10 | – | – | – | – | – | – | – | – | > 99 | > 99 |
| CC[C@@H]1C(=O)N(C)c2cnc(Nc3cc(N4CCN(C)CC4)cc(F)c3OCCO)nc2N1C(C)C | 0.03 | > 10 | > 10 | – | – | – | – | – | – | – | – | > 330 | > 330 |
| CC[C@@H]1C(=O)N(C)c2cnc(Nc3cc(N4CCC(NC(=O)OC(C)(C)C)CC4)ccc3OCCCO)nc2N1C1CCCC1 | 0.097 | > 10 | > 10 | – | – | – | – | – | – | – | – | > 104 | > 104 |
| CC[C@@H]1C(=O)N(C)c2cnc(Nc3cc(N4CCC(N)CC4)ccc3OCCCO)nc2N1C1CCCC1 | 0.031 | 6.01 | > 10 | – | – | – | – | – | – | – | – | > 319 | 192 |
| CC[C@@H]1C(=O)N(C)c2cnc(Nc3cc(N(C)CCN(C)C)cc(F)c3OCCCO)nc2N1C1CCCC1 | 0.02 | 1.46 | 5.87 | – | – | – | – | – | – | – | – | 292 | 72 |

Now from value to compound, other results behind:

| IC50 [1] [µM] | IC50 [3] [µM] | IC50 [5] [µM] | IC50 (CCRF-CEM) [µM] | IC50 (HL-60) [µM] | IC50 (NCI-H460) [µM] | IC50 (SW-620) [µM] | IC50 (PC-9) [µM] | IC50 (A549) [µM] | IC50 (KG-1) [µM] | IC50 (K562) [µM] | Compound | ratio [2] | ratio [4] |
| --- | --- | --- | --- | --- | --- | --- | --- | --- | --- | --- | --- | --- | --- |
| 0.034 | > 10 | > 10 | – | – | – | – | – | – | – | – | CC[C@@H]1C(=O)N(C)c2cnc(Nc3cc(N4CCC(N)CC4)ccc3OCCO)nc2N1C1CCCC1 | > 292 | > 292 |
| 0.015 | 3.67 | > 10 | 0.063 | 0.054 | 0.326 | 0.018 | 1.99 | 1.54 | 0.588 | 0.0077 | CC[C@@H]1C(=O)N(C)c2cnc(Nc3cc(N4CCN(C)CC4)cc(F)c3OC[C@H](C)O)nc2N1C1CCCC1 | > 658 | 373 |
| 7.46 | – | – | – | – | – | – | – | – | – | – | CC[C@@H]1C(=O)N(C)c2cnc(Nc3cc(N4CCN(C)CC4)cc(F)c3OCCCO)nc2N1C1CCNC1 (some centres undefined) | – | – |
| 0.011 | 5.76 | 7.85 | – | – | – | – | – | – | – | – | CC[C@@H]1C(=O)N(C)c2cnc(Nc3cc(N4CCN(C)CC4)cc(Cl)c3OCCO)nc2N1C1CCCC1 | 764 | 576 |
| 0.02 | > 10 | > 10 | – | – | – | – | – | – | – | – | CC[C@@H]1C(=O)N(C)c2cnc(Nc3cc(N4CCN(C)CC4)cc(Cl)c3OCCCO)nc2N1C(C)C | > 333 | > 333 |
| 0.018 | 3.99 | 5.56 | – | – | – | – | – | – | – | – | CC[C@@H]1C(=O)N(C)c2cnc(Nc3cc(N4CCN(C)CC4)cc(Cl)c3OC)nc2N1C(C)C | 314 | 221 |
| 0.011 | 3.22 | > 10 | 0.064 | 0.039 | 0.076 | 0.0068 | 0.082 | 0.057 | > 10 | 5.19 | CC[C@@H]1C(=O)N(C)c2cnc(Nc3cc(N4CCN(C)CC4)cc(F)c3OCCO)nc2N1C1CCCC1 | > 952 | 306 |
| 0.195 | > 10 | > 10 | – | – | – | – | – | – | – | – | CC[C@@H]1C(=O)N(C)c2cnc(Nc3cc(N4CCN(C(=O)OC(C)(C)C)CC4)ccc3OCCCO)nc2N1C1CCCC1 | > 51 | > 51 |
| 0.012 | 1.29 | 0.61 | – | – | – | – | – | – | – | – | CC[C@@H]1C(=O)N(C)c2cnc(Nc3cc(N4CCN(CC)CC4)cc(F)c3OC)nc2N1C1CCCC1 | 51 | 107 |
| 9.25 | – | – | – | – | – | – | – | – | – | – | CC[C@@H]1C(=O)N(C)c2cnc(Nc3cc(N4CCN(C)CC4)cc(Cl)c3OCCO)nc2N1C1CCNC1 (some centres undefined) | – | – |
| 0.02 | > 10 | > 10 | – | – | – | – | – | – | – | – | CC[C@@H]1C(=O)N(C)c2cnc(Nc3cc(N4CCN(CC)CC4)cc(F)c3OCCO)nc2N1C1CCCC1 | > 500 | > 500 |
| 0.048 | > 10 | > 10 | – | – | – | – | – | – | – | – | CC[C@@H]1C(=O)N(C)c2cnc(Nc3cc(N4CCN(C)CC4)cc(Cl)c3OCCO)nc2N1C(C)C | > 208 | > 208 |
| 0.023 | 5.57 | > 10 | – | – | – | – | – | – | – | – | CC[C@@H]1C(=O)N(C)c2cnc(Nc3cc(N4CCNCC4)ccc3OCCCO)nc2N1C1CCCC1 | > 435 | 225 |
| 0.013 | 0.625 | 0.422 | – | – | – | – | – | – | – | – | CC[C@@H]1C(=O)N(C)c2cnc(Nc3cc(N(C)CCN(C)C)cc(F)c3OC)nc2N1C1CCCC1 | 32 | 48 |
| – | – | – | 0.034 | 0.089 | 0.036 | 0.018 | 0.058 | 0.045 | 8.66 | 0.012 | CN1CCN(c2ccc(OC(F)(F)F)c(Nc3ncc4c(n3)-c3c(c(C(N)=O)nn3CCO)CC4)c2)CC1 [ONVANSERTIB] | – | – |
